Experimental findings from patent US8574563B2 (Bristol-Myers Squibb Company, priority 2006, dated 2013) are described below.

The subject of one assay is HCV 1b-377-neo replicon cells. Put plainly: HCV replicon assay, HCV 1b-377-neo replicon cells (1b FRET). The format is cell-based, Hepatitis C virus genotype 1b. The settings on record: HCV 1b-377-neo replicon cells; HCV 1b genotype. In outline: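 Compounds tested in HCV genotype 1b-377-neo replicon cells with a FRET read-out. Cells resistant to a reference NS5A inhibitor through a Y2065H NS5A mutation were run alongside wild-type cells.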
Consider `C[C@@H](C(=O)N1CCC[C@H]1c1ncc(-c2ccc(-c3ccc(-c4cnc([C@@H]5CCCN5C(=O)[C@H](C)N(C)C)[nH]4)cc3)cc2)[nH]1)N(C)C` [Example M19, (2S,2′S)-1,1′-(4,4′-biphenyldiylbis(1H-imidazole-5,2-diyl(2S)-2,1-pyrrolidinediyl))bis(N,N-dimethyl-1-oxo-2-propanamine)], for which the “EC50 range against HCV 1b (Table 2, Range)” value is “>A”.

The same assay, now with this note: HCV 1b-377-neo replicon cells; HCV 1b genotype; read-out: EC50 range against HCV 1b (Table 2, Range).
With `COC(=O)N[C@@H](CC(N)=O)C(=O)N1CCC[C@H]1c1ncc(-c2ccc(-c3ccc(-c4cnc([C@@H]5CCCN5C(=O)[C@@H](NC(=O)OC)C(C)C)[nH]4)cc3)cc2)[nH]1` [Example M91y, methyl ((1S)-3-amino-1-(((2S)-2-(5-(4′-(2-((2S)-1-((2S)-2-((methoxycarbonyl)amino)-3-methylbutanoyl)-2-pyrrolidinyl)-1H-imidazol-5-yl)-4-biphenylyl)-1H-imidazol-2-yl)-1-pyrrolidinyl)carbonyl)-3-oxopropyl)carbamate (non-preferred name)], the half-maximal effective concentration (EC50) is 100 to 999 nM.

The same assay, now with this note: Hepatitis C virus, HCV 1b-377-neo replicon cells; HCV 1b genotype; read-out: EC50 range against HCV 1b (Table 2, Range).
With `COC(=O)N[C@@H](C(=O)N1CCC[C@H]1c1ncc(-c2ccc(-c3ccc(-c4cnc([C@@H]5CCCN5C(=O)Cc5ccccc5CN5CCOCC5)[nH]4)cc3)cc2)[nH]1)c1ccccc1` [Example 84-84, methyl ((1R)-2-((2S)-2-(5-(4′-(2-((2S)-1-((2-(4-morpholinylmethyl)phenyl)acetyl)-2-pyrrolidinyl)-1H-imidazol-5-yl)-4-biphenylyl)-1H-imidazol-2-yl)-1-pyrrolidinyl)-2-oxo-1-phenylethyl)carbamate], the EC50 was in the range of 0.001 to 0.999 nM.

Consider `CCOC(=O)N[C@@H](C)C(=O)N1CCC[C@H]1c1ncc(-c2ccc(-c3ccc(-c4cnc([C@@H]5CCCN5C(=O)[C@@H](c5ccccc5)N(CC)CC)[nH]4)cc3)cc2)[nH]1` [Example M31, ethyl ((1S)-2-((2S)-2-(5-(4′-(2-((2S)-1-((2R)-2-(diethylamino)-2-phenylacetyl)-2-pyrrolidinyl)-1H-imidazol-5-yl)-4-biphenylyl)-1H-imidazol-2-yl)-1-pyrrolidinyl)-1-methyl-2-oxoethyl)carbamate], for which the EC50 was in the range of 1 to 99 nM.

For `COC(=O)N[C@@H](C(=O)N1CCC[C@H]1c1ncc(-c2ccc(-c3ccc(-c4cnc([C@@H]5CCCN5C(=O)[C@H](O)c5ccccc5)[nH]4)cc3)cc2)[nH]1)c1ccccc1` [Example 43, methyl ((1R)-2-((2S)-2-(5-(4′-(2-((2S)-1-((2R)-2-hydroxy-2-phenylacetyl)-2-pyrrolidinyl)-1H-imidazol-5-yl)-4-biphenylyl)-1H-imidazol-2-yl)-1-pyrrolidinyl)-2-oxo-1-phenylethyl)carbamate], the EC50 lay within 0.001 to 0.999 nM.

As to `CCN(CC)[C@@H](C(=O)N1CCC[C@H]1c1ncc(-c2ccc(-c3ccc(-c4cnc([C@@H]5CCCN5C(=O)[C@@H](Nc5cccnc5)C(C)C)[nH]4)cc3)cc2)[nH]1)c1ccccc1` [cj-20c, N-((1S)-1-(((2S)-2-(5-(4′-(2-((2S)-1-((2R)-2-(diethylamino)-2-phenylacetyl)-2-pyrrolidinyl)-1H-imidazol-5-yl)-4-biphenylyl)-1H-imidazol-2-yl)-1-pyrrolidinyl)carbonyl)-2-methylpropyl)-3-pyridinamine], the 50% effective concentration (EC50) lay in the range of 0.001 to 0.999 nM.

`C[C@H](NC(=O)[C@@H](c1ccccc1)N(C)C)c1ncc(-c2ccc(-c3ccc(-c4cnc([C@@H]5CCCN5C(=O)[C@@H](c5ccccc5)N(C)C)[nH]4)nn3)cc2)[nH]1` [Example 152j-13, (2R)-2-(dimethylamino)-N-((1S)-1-(5-(4-(6-(2-((2S)-1-((2R)-2-(dimethylamino)-2-phenylacetyl)-2-pyrrolidinyl)-1H-imidazol-5-yl)-3-pyridazinyl)phenyl)-1H-imidazol-2-yl)ethyl)-2-phenylacetamide]: the half-maximal effective concentration (EC50) lay within 1 to 99 nM.

In the case of `CC(=O)CCC(=O)N1CCC[C@H]1c1ncc(-c2ccc(-c3ccc(-c4cnc([C@@H]5CCCN5C(=O)[C@@H](c5ccccc5)N(C)C)[nH]4)cc3)cc2)[nH]1` [Example 94-37, 5-((2S)-2-(5-(4′-(2-((2S)-1-((2R)-2-(dimethylamino)-2-phenylacetyl)-2-pyrrolidinyl)-1H-imidazol-5-yl)-4-biphenylyl)-1H-imidazol-2-yl)-1-pyrrolidinyl)-5-oxo-2-pentanone], the EC50 was 1 to 99 nM.

As to `CCN(CC)[C@@H](C(=O)N1CCC[C@H]1c1ncc(-c2ccc(-c3ccc(-c4cnc([C@@H]5CCCN5C(=O)[C@@H](NC(=O)OC)C(C)C)[nH]4)cc3)cc2)[nH]1)c1ccccc1` [Example M58, methyl ((1S)-1-(((2S)-2-(5-(4′-(2-((2S)-1-((2R)-2-(diethylamino)-2-phenylacetyl)-2-pyrrolidinyl)-1H-imidazol-5-yl)-4-biphenylyl)-1H-imidazol-2-yl)-1-pyrrolidinyl)carbonyl)-2-methylpropyl)carbamate], the 50% effective concentration (EC50) lay in the range of 1 to 99 nM.

Consider `CC(C)C[C@@H](C(=O)N1CCC[C@H]1c1nc(-c2ccc(-c3ccc(-c4cnc([C@@H]5CCCN5C(=O)[C@H](CC(C)C)N(C)C(=O)OC(C)(C)C)[nH]4)cc3)cc2)c[nH]1)N(C)C(=O)OC(C)(C)C` [Example F28, tert-butyl ((1S)-1-(((2S)-2-(5-(4′-(2-((2S)-1-((2S)-2-((tert-butoxycarbonyl)(methyl)amino)-4-methylpentanoyl)-2-pyrrolidinyl)-1H-imidazol-4-yl)-4-biphenylyl)-1H-imidazol-2-yl)-1-pyrrolidinyl)carbonyl)-3-methylbutyl)methylcarbamate], for which the EC50 is 1 to 99 nM.

Turning to `CCN(CC)[C@@H](C(=O)N1CCC[C@H]1c1ncc(-c2ccc(-c3ccc(-c4cnc([C@@H]5CCCN5C(=O)c5ncco5)[nH]4)cc3)cc2)[nH]1)c1ccccc1` [Example M37, (1R)-N,N-diethyl-2-((2S)-2-(5-(4′-(2-((2S)-1-(1,3-oxazol-2-ylcarbonyl)-2-pyrrolidinyl)-1H-imidazol-5-yl)-4-biphenylyl)-1H-imidazol-2-yl)-1-pyrrolidinyl)-2-oxo-1-phenylethanamine], the EC50 lay in the range of 1 to 99 nM.

As to `CCN(CC)[C@H](C)C(=O)N1CCC[C@H]1c1ncc(-c2ccc(-c3ccc(-c4cnc([C@@H]5CCCN5C(=O)[C@@H](c5ccccc5)N(CC)CC)[nH]4)cc3)cc2)[nH]1` [Example M35, (2R)-1-((2S)-2-(5-(4′-(2-((2S)-1-((2R)-2-(diethylamino)-2-phenylacetyl)-2-pyrrolidinyl)-1H-imidazol-5-yl)-4-biphenylyl)-1H-imidazol-2-yl)-1-pyrrolidinyl)-N,N-diethyl-1-oxo-2-propanamine], the EC50 lay in the range of 1 to 99 nM.

In the case of `COC(=O)N[C@@H](C(=O)N1CCC[C@H]1c1ncc(-c2ccc(-c3ccc(-c4cnc([C@@H]5CCCN5C(=O)C(c5ccc6sc(C)nc6c5)N(C)C)[nH]4)cc3)cc2)[nH]1)c1ccccc1` (stereo partly drawn) [Example 84-53, methyl ((1R)-2-((2S)-2-(5-(4′-(2-((2S)-1-((dimethylamino)(2-methyl-1,3-benzothiazol-5-yl)acetyl)-2-pyrrolidinyl)-1H-imidazol-5-yl)-4-biphenylyl)-1H-imidazol-2-yl)-1-pyrrolidinyl)-2-oxo-1-phenylethyl)carbamate], the EC50 fell in the range of 0.001 to 0.999 nM.

With `COC(=O)N[C@@H](C(=O)N1CCC[C@H]1c1ncc(-c2cnc(-c3cnc(-c4cnc([C@@H]5CCCN5C(=O)[C@H](NC(=O)OC)c5ccccc5)[nH]4)cn3)cn2)[nH]1)c1ccccc1` [Example 153c-6, dimethyl (2,2′-bipyrazine-5,5′-diylbis(1H-imidazole-5,2-diyl(2S)-2,1-pyrrolidinediyl((1R)-2-oxo-1-phenyl-2,1-ethanediyl)))biscarbamate], the EC50 lay within 1 to 99 nM.

Broadly, the EC50 is the midpoint of the concentration-response curve.
